Source: patent publication US12649768B2, “Recombinant expression vector for high expression of brazzein in Saccharomyces cerevisiae and method for mass-production of brazzein using the same” (CHUNG-ANG UNIVERSITY INDUSTRY-ACADEMIC COOPERATION …, priority 2021, dated 2026)
No end group written: not given here.

Assays:
[1] = versus 2% sugar solution, cited from earlier work
[2] = Brazzein sweetness activity by ascending taste test with a trained human panel; type: in vivo, humans; conditions: threshold concentration at which sweetness is first felt, 500 μl samples tasted from low to high concentration
Description: Since brazzein is a protein rather than a sugar, it is not possible to measure sweetness using a saccharimeter. Therefore, the activity was measured using a taste test that measures the activity of brazzein by allowing humans to directly taste brazzein. First, brazzein was dissolved in distilled water such that the final concentration was 1.0 mg/mL, samples were prepared by varying the test concentration so as to be 30 to 0.05 ng/mL, a threshold value for feeling the sweetness for the first time was obtained by tasting the sweetness of the solution, […] The specific activity measurement method was performed as follows.
A panel of a total of 20 males and 10 females trained in the sweetness test was configured. Prior to the activity measurement, the subjects were informed of the test date and time in advance to sample the taste in their best conditions, and were prohibited from drinking alcohol on the day before the test and eating food, smoking, and the like immediately before the test. The subjects trained in advance rinsed their mouths with prepared secondary distilled water and obtained the concentration at which the sweetness was first felt while sampling the taste of 500 μl of each sample according to the concentration of each type in the order of low concentration to high concentration. […]

Substance	sweetness relative to a 2% sugar solution, on a molar basis ([1]; molar basis)	sweetness relative to a 2% sugar solution, on a molecular weight basis ([1]; molecular weight basis)	sweetness activity relative to the same mass of sucrose [2]
Brazzein: natural sweet protein of 54 amino acid residues, 6.5 kDa, from the fruit of Pentadiplandra brazzeana Baillon (QDKCKKVYENYPVSKCQLANQCNYDCKLDKHARSGECFYDEKRNLQCICDYCEY; UniProt P56552 1-54, looked up)	~9500 fold	about 2000 fold	
K. lactis wild-type brazzein: wild-type brazzein expressed in K. lactis, used as the sweetness comparison (QDKCKKVYENYPVSKCQLANQCNYDCKLDKHARSGECFYDEKRNLQCICDYCEY; ends and bridges not checked; cysteine pairing not given here; UniProt P56552 1-54, looked up) [reference compound]			2,309 (±6.8%) fold
S. cerevisiae wild-type brazzein: wild-type brazzein (SEQ ID NO: 3) secreted and expressed in Saccharomyces cerevisiae with the pESC-Brazzein vector (DKCKKVYENYPVSKCQLANQCNYDCKLDKHARSGECFYDEKRNLQCICDYCEY)			about 2,260 (±5.9%) fold
